{"source": "patent US20250302929A1", "about": "“TUMOR NEOANTIGENIC PEPTIDES” (INSTITUT CURIE, priority 2021, published 2025)", "key": {"[1]": {"system": "CD8+ T cells from HLA-A2+ healthy donors", "assay": "Priming of naive CTLs, in vitro immunogenicity assay, tetramer staining", "type": "cell-based, human", "conditions": "for specific CD8+ T expansions (immunogenicity): total of 6 donors, FIG. 11A; for expansion of specific CD8+ T cells (tetramer positive): one donor, versus co-culture without peptides", "procedure": "Priming of naïve CTLs. PBMCs were obtained by Ficoll gradient separation from HLA-A2+ healthy blood donors. CD14+, CD4+ and CD8+ cells were purified by positive selection using magnetic beads (Miltenyi Biotec). While CD4+ and CD8+ T cells were cryopreserved until the experiment day, CD14+ fraction was cultured in the presence of IL-4 (50 ng/ml) and GM-CSF (10 ng/mL) at 10^6 cells/mL during 5 days to obtain moDCs. After this period of time, the moDCs were maturated with LPS and incubated with synthetic ER-derived peptides at a final concentration of 1 μg/mL for 2 hours. Finally, peptide-loaded moDCs were co-cultured with autologous CD4+ and CD8+ T cells in culture medium supplemented with IL-2 (10U/ml) and IL-7 (100 ng/ml). The ER-derived peptide stimulation of specific CD8+ CTL populations was assessed by MHC-I tetramer staining by flow cytometry using a combination of two-color tetramer for each peptide.\n(§1) Tetramer Staining. Cells were resuspended in PBS, stained with Live/Dead Aqua-405 nm (ThermoFisher) during 20 minutes at 4° C. and washed once. After that, cells were resuspended in PBS-1% BSA containing the mix of SA-coupled tetramers and incubated in the dark at room temperature during 20 minutes. Without further washing, surface antibodies were added in PBS-1% BSA and cells were incubated 20 minutes in the dark at 4° C. Surface antibodies were a combination of anti-CD3-BV650+ anti-CD8-PECy7 in combination with anti-CCR7-AF700+ anti-CD45RA-BUV395 when required. Finally, cells were washed twice and resuspended in FACS buffer for flow cytometry analysis.\nThe following step after binding validation to HLA-A2 allele, was to test the immunogenicity of predicted peptides. Priming assays were thus performed to test the ability of identified peptides to expand specific cytotoxic T cells. PBMCs from HLA-A2+ healthy donors were used to generate monocyte derived-DCs (moDCs). After loading the moDCs with a mix of synthetic peptides, autologous co-culture was performed with CD4+ and CD8+ T cells. Finally, the expansion of specific CD8+ T cells was analysed by flow cytometry using two-colours tetramer staining. As a control of specific expansion, the co-culture was performed in the absence of peptides."}, "[2]": {"system": "CD8+ T cells from tumor, juxta tumor, lymph nodes and blood of LUAD patients", "assay": "Tetramer staining of TILs and CD8+ T cells from LUAD patient samples", "type": "cell-based, human", "conditions": "TILs from LUAD patients expanded with peptide mix + IL-2 or IL-2 only", "procedure": "In experiments addressed to evaluate the presence of specific CD8+ T cells, the tetramerization step was performed by incubating the monomers with different combinations of fluorescent streptavidin (PE, APC, PE-Cy5, PE-CF594, BV421, BV711 and FITC).\nas §1, with “analysis. […]” for “analysis.”\nTumor infiltrating lymphocytes (TILs) cultures. […] Cells were feed/split as necessary during 15-20 days and cryopreserve or analyzed for tetramer staining.\nIn a first set of experiments tumor infiltrating lymphocytes (TILs) expanded with a mix of TE-derived peptides and Il-2, or only with Il-2, were analyzed by tetramer staining. […]\nIn a second cohort of 5 primary, untreated, LUAD tumor, juxta-tumor, tumor-draining lymph node and blood samples from LUAD cancer HLA-A2+ patients were analyzed. […]"}}, "note": "Entries after “also recorded” stand apart in the source; their conditions may differ.", "data": [{"sequence": "MLVTWELAL", "values": [{"measurement": "specific CD8+ T expansions (immunogenicity)", "setting": "[1]", "result": "specific CD8+ T expansions"}]}, {"sequence": "RQAPGFHHA", "values": [{"measurement": "specific CD8+ T expansions (immunogenicity)", "setting": "[1]", "result": "specific CD8+ T expansions"}]}, {"sequence": "FLIVAEILI", "values": [{"measurement": "expansion of specific CD8+ T cells (tetramer positive)", "setting": "[1]", "result": "expand specific CD8+ T cells"}]}, {"sequence": "AILPKANTV", "values": [{"measurement": "expansion of specific CD8+ T cells (tetramer positive)", "setting": "[1]", "result": "expand specific CD8+ T cells"}, {"measurement": "specific CD8+ T expansions (immunogenicity)", "setting": "[1]", "result": "specific CD8+ T expansions"}]}, {"sequence": "LLGETKVYV", "values": [{"measurement": "expansion of specific CD8+ T cells (tetramer positive)", "setting": "[1]", "result": "expand specific CD8+ T cells"}, {"measurement": "specific CD8+ T expansions (immunogenicity)", "setting": "[1]", "result": "specific CD8+ T expansions"}]}, {"sequence": "YLWTTFFPL", "values": [{"measurement": "expansion of specific CD8+ T cells (tetramer positive)", "setting": "[1]", "result": "expand specific CD8+ T cells"}, {"measurement": "specific CD8+ T expansions (immunogenicity)", "setting": "[1]", "result": "specific CD8+ T expansions"}]}, {"sequence": "GLLNISHTA", "values": [{"measurement": "specific CD8+ T expansions (immunogenicity)", "setting": "[1]", "result": "specific CD8+ T expansions"}]}, {"sequence": "ILTASITSI", "values": [{"measurement": "specific CD8+ T expansions (immunogenicity)", "setting": "[1]", "result": "specific CD8+ T expansions"}]}, {"sequence": "YLQGLPLPL", "values": [{"measurement": "specific CD8+ T expansions (immunogenicity)", "setting": "[1]", "result": "specific CD8+ T expansions"}]}, {"sequence": "GLPSHVELA", "values": [{"measurement": "specific CD8+ T expansions (immunogenicity)", "setting": "[1]", "result": "specific CD8+ T expansions; also recorded: immunogenic"}, {"measurement": "tetramer positive CD8+ T cells in TILs", "setting": "[2]", "result": "TILs recognizing"}]}, {"sequence": "LLHLESFLV", "values": [{"measurement": "specific CD8+ T expansions (immunogenicity)", "setting": "[1]", "result": "specific CD8+ T expansions"}]}, {"sequence": "RLLHLESFL", "values": [{"measurement": "expansion of specific CD8+ T cells (tetramer positive)", "setting": "[1]", "result": "expand specific CD8+ T cells"}, {"measurement": "specific CD8+ T expansions (immunogenicity)", "setting": "[1]", "result": "specific CD8+ T expansions"}]}, {"sequence": "RLADHLSFC", "values": [{"measurement": "expansion of specific CD8+ T cells (tetramer positive)", "setting": "[1]", "result": "expand specific CD8+ T cells"}, {"measurement": "specific CD8+ T expansions (immunogenicity)", "setting": "[1]", "result": "specific CD8+ T expansions; also recorded: immunogenic"}]}, {"sequence": "FLGTRVTRV", "values": [{"measurement": "specific CD8+ T expansions (immunogenicity)", "setting": "[1]", "result": "specific CD8+ T expansions"}]}, {"sequence": "AMDGKELSL", "values": [{"measurement": "specific CD8+ T expansions (immunogenicity)", "setting": "[1]", "result": "specific CD8+ T expansions"}]}, {"sequence": "ILSGYGPCV", "values": [{"measurement": "specific CD8+ T expansions (immunogenicity)", "setting": "[1]", "result": "specific CD8+ T expansions"}]}, {"sequence": "SLMQSGSPV", "values": [{"measurement": "specific CD8+ T expansions (immunogenicity)", "setting": "[1]", "result": "specific CD8+ T expansions"}]}, {"sequence": "VLMWTMAHL", "values": [{"measurement": "specific CD8+ T expansions (immunogenicity)", "setting": "[1]", "result": "specific CD8+ T expansions"}]}, {"sequence": "LLTSWHLYL", "values": [{"measurement": "specific CD8+ T expansions (immunogenicity)", "setting": "[1]", "result": "specific CD8+ T expansions"}]}, {"sequence": "VLLTNTIWL", "values": [{"measurement": "specific CD8+ T expansions (immunogenicity)", "setting": "[1]", "result": "specific CD8+ T expansions"}]}, {"sequence": "YLPYFLKSL", "values": [{"measurement": "specific CD8+ T expansions (immunogenicity)", "setting": "[1]", "result": "specific CD8+ T expansions"}]}, {"sequence": "LLDRFGYHV", "values": [{"measurement": "specific CD8+ T expansions (immunogenicity)", "setting": "[1]", "result": "specific CD8+ T expansions"}]}, {"sequence": "MLMKTVWQA", "values": [{"measurement": "specific CD8+ T expansions (immunogenicity)", "setting": "[1]", "result": "specific CD8+ T expansions"}]}, {"sequence": "ILHSLVTGV", "values": [{"measurement": "specific CD8+ T expansions (immunogenicity)", "setting": "[1]", "result": "specific CD8+ T expansions"}]}]}
